Test results as given in the CheMixHub viscosity set.

Assay: xn = mol fraction of the nth substance listed

CCCCC(C)=O + CC(=O)CC(C)C
298.15 K, 101 kPa
Details	viscosity [mPa·s]
x2 = 0.1164	0.581
x2 = 0.2196	0.575
x2 = 0.3357	0.571
x2 = 0.4413	0.566
x2 = 0.5503	0.562
x2 = 0.6632	0.558
x2 = 0.7765	0.553
x2 = 0.8841	0.548

COCC(C)O (stereo unspecified) + CC(=O)CC(C)C
298.15 K, 101 kPa
Details	viscosity [mPa·s]
x2 = 0.1057	1.373
x2 = 0.2037	1.167
x2 = 0.3075	1.006
x2 = 0.4185	0.875
x2 = 0.5295	0.774
x2 = 0.6413	0.696
x2 = 0.7612	0.63
x2 = 0.8745	0.582

O=[N+]([O-])c1ccccc1 + CC(=O)O
viscosity [mPa·s], 101 kPa
Details	x2 = 0.165	x2 = 0.3078	x2 = 0.4326	x2 = 0.5425	x2 = 0.6402	x2 = 0.7274	x2 = 0.8059	x2 = 0.8768	x2 = 0.9412
298.15 K	1.731	1.662	1.602	1.546	1.488	1.428	1.365	1.3	1.232
308.15 K	1.48	1.453	1.407	1.35	1.288	1.224	1.159	1.095	1.033
318.15 K	1.314	1.365	1.353	1.306	1.24	1.164	1.085	1.006	0.9289

ClC(Cl)=C(Cl)Cl + CC(=O)c1ccccc1
298.15 K, 101 kPa
Details	viscosity [mPa·s]
x2 = 0.1255	0.893
x2 = 0.3215	1.023
x2 = 0.5397	1.198
x2 = 0.7329	1.382
x2 = 0.9142	1.555

CC(C)CCl + CC(C)(C)O
viscosity [mPa·s], 101.33 kPa
Details	x1 = 0.0982	x1 = 0.2011	x1 = 0.3047	x1 = 0.4029	x1 = 0.5031	x1 = 0.6023	x1 = 0.6979	x1 = 0.7997	x1 = 0.8948
298.15 K	2.345	1.477	1.065	0.8424	0.6988	0.604	0.5388	0.4863	0.3827
313.15 K	1.359	0.9661	0.7571	0.6303	0.5423	0.481	0.437	0.4053	0.3751

ClC(Cl)=C(Cl)Cl + CC(C)(C)O
303.15 K, 101.33 kPa
Details	viscosity [mPa·s]
x1 = 0.1027	2.16
x1 = 0.2143	1.557
x1 = 0.3299	1.249
x1 = 0.4102	1.122
x1 = 0.5188	1.006
x1 = 0.6036	0.946
x1 = 0.7072	0.895
x1 = 0.8124	0.852
x1 = 0.9075	0.821

O=[N+]([O-])c1ccccc1 + CC(C)(C)O
viscosity [mPa·s], 101.33 kPa
Details	x1 = 0.0627	x1 = 0.1307	x1 = 0.2059	x1 = 0.2864	x1 = 0.3758	x1 = 0.4746	x1 = 0.5843	x1 = 0.7067	x1 = 0.8442
298.15 K	3.205	2.576	2.256	2.001	1.838	1.711	1.655	1.697	1.681
303.15 K	2.375	2.152	1.896	1.732	1.622	1.506	1.468	1.477	1.538

C1CCC2CCCCC2C1 (stereo unspecified) + CC(C)CC(C)(C)C
viscosity [mPa·s], 101 kPa
Details	x2 = 0.1031	x2 = 0.1995	x2 = 0.299	x2 = 0.4001	x2 = 0.5004	x2 = 0.6002	x2 = 0.6994	x2 = 0.8002	x2 = 0.899
293.15 K	2.019	1.701	1.435	1.203	1.026	0.876	0.758	0.656	0.571
298.15 K	1.842	1.561	1.323	1.114	0.955	0.818	0.711	0.62	0.54
303.15 K	1.688	1.436	1.223	1.034	0.89	0.765	0.667	0.581	0.509
308.15 K	1.553	1.327	1.135	0.963	0.831	0.717	0.627	0.547	0.482
313.15 K	1.434	1.23	1.056	0.905	0.778	0.673	0.59	0.516	0.456
318.15 K	1.328	1.142	0.983	0.838	0.727	0.63	0.552	0.483	0.425
323.15 K	1.234	1.066	0.921	0.788	0.686	0.597	0.525	0.461	0.408

CCCCCCCCCCCCCC + CC(C)CC(C)(C)C
298.15 K, 101 kPa
Details	viscosity [mPa·s]
x2 = 0.1084	1.813
x2 = 0.1551	1.724
x2 = 0.1801	1.702
x2 = 0.2807	1.483
x2 = 0.4042	1.265
x2 = 0.5162	1.086
x2 = 0.6304	0.9193
x2 = 0.7095	0.8085
x2 = 0.7868	0.7168
x2 = 0.8111	0.6841
x2 = 0.8616	0.6216
x2 = 0.9166	0.5603
x2 = 0.9516	0.5263
x2 = 0.9768	0.5023

ClC(Cl)=C(Cl)Cl + CC(C)CCO
303.15 K, 101.33 kPa
Details	viscosity [mPa·s]
x1 = 0.0975	2.635
x1 = 0.2467	2.045
x1 = 0.3283	1.773
x1 = 0.4163	1.524
x1 = 0.5256	1.293
x1 = 0.6182	1.148
x1 = 0.7334	1.013
x1 = 0.8214	0.934
x1 = 0.9161	0.864

CC(C)CCl + CC(C)CO
viscosity [mPa·s], 101.33 kPa
Details	x1 = 0.1154	x1 = 0.2046	x1 = 0.3086	x1 = 0.4017	x1 = 0.4943	x1 = 0.6102	x1 = 0.7057	x1 = 0.8002	x1 = 0.8978
298.15 K	2.364	1.728	1.287	1.019	0.8243	0.6718	0.5775	0.5104	0.4593
313.15 K	1.56	1.191	0.9221	0.7582	0.6325	0.5324	0.4679	0.4215	0.3866

ClC(Cl)=C(Cl)Cl + CC(C)CO
303.15 K, 101.33 kPa
Details	viscosity [mPa·s]
x1 = 0.1124	2.28
x1 = 0.2157	1.855
x1 = 0.3156	1.552
x1 = 0.4057	1.353
x1 = 0.5099	1.182
x1 = 0.5996	1.077
x1 = 0.7145	0.977
x1 = 0.8032	0.918
x1 = 0.908	0.857
